Laboratory results taken from ChEMBL document CHEMBL1136984, “Orally active C-6 heteroaryl- and heterocyclyl-substituted imidazo[1,2-a]pyridine acid pump antagonists (APAs)” (Bioorg Med Chem Lett, 2009).
One block for each compound: values may come before it.

Experiments:
[1] = buffer, pH 7.4
in vivo [2] = conditions: dog, po, 1 mg/kg
in vivo [3] = conditions: rat, iv, 1 mg/kg
in vivo [4] = conditions: dog, iv, 1 mg/kg
in vivo [5] = conditions: rat, po, 1 mg/kg
in vivo [6] = conditions: dog, iv, 1 mg/kg; remark: listed apart in the source
[7] = Blood clearance in dog at 1 mg/kg/hr, iv dosed in saline containing hydroxylpropyl-beta-cyclodextrin and DMSO; type: ADME, organism-based, Canis lupus familiaris; parameters: route intravenous
in vivo [8] = conditions: rat, blood, iv, 1 mg/kg
in vivo [9] = conditions: rat, iv, 1 mg/kg; remark: listed apart in the source

Compound: Cc1nc2c(NCc3cccnc3)cc(-n3ccccc3=O)cn2c1C
CHI [1]: 0.73

Compound: Cc1cccc(C)c1CNc1cc(C(=O)NCCO)cn2c(C)c(C)nc12 [LINAPRAZAN]
CHI [1]: 2.14

Compound: Cc1cccc(CNc2cc(-n3ccccc3=O)cn3c(C)c(C)nc23)c1
CHI [1]: 2.17

Compound: COc1ccccc1CNc1cc(-n2ccccc2=O)cn2c(C)c(C)nc12
CHI [1]: 1.93

Compound: Cc1cccc(C)c1CNc1cc(-n2cc(C(N)=O)ccc2=O)cn2c(C)c(C)nc12
CHI [1]: 1.71

Compound: Cc1cccc(C)c1COc1cc(-n2ccccc2=O)cn2c(C)c(C)nc12
CHI [1]: 2.12

Compound: Cc1nc2c3c(c(-n4ccccc4=O)cn2c1C)CC[C@@H](c1ccccc1)N3
CHI [1]: 3.35

Compound: CCc1cccc(C)c1CNc1cc(C(N)=O)cn2c(C)c(C)nc12
CHI [1]: 2.52

Compound: Cc1cn2cc(-n3ccccc3=O)cc(NCc3c(C)cccc3C)c2n1
Vd (in vivo [3]): 1.8 L/kg
bioavailability (in vivo [5]): 18%
half-life (in vivo [9]): 0.5 h
clearance (in vivo [8]): 3.48 L/h/kg

Compound: Cc1cccc(C)c1CNc1cc(-n2ccccc2=O)cn2c(CO)c(C)nc12
bioavailability (in vivo [2]): 36%
Vd (in vivo [3]): 1 L/kg
Vd (in vivo [4]): 1.1 L/kg
bioavailability (in vivo [5]): 28%
half-life (in vivo [6]): 1.6 h
clearance [7]: 0.6 L/h/kg
half-life (in vivo [9]): 5.3 h
clearance (in vivo [8]): 2.22 L/h/kg

Compound: Cc1nc2c(NCc3ccc(F)cc3Cl)cc(-n3ccccc3=O)cn2c1C
CHI [1]: 2.26

Next, values leading:

CHI [1]: 2.79
Compound: Cc1cccc(C)c1CNc1cc(N2CCCCC2=O)cn2c(C)c(C)nc12

CHI [1]: 1.58
Compound: Cc1cccc(C)c1CNc1cc(-n2ccc(=O)cc2)cn2c(C)c(C)nc12

CHI [1]: 2.33
Compound: Cc1cccc(C)c1CNc1cc(-n2cnccc2=O)cn2c(C)c(C)nc12

CHI [1]: 2.61
Compound: Cc1nc2c(NCc3ccc(F)cc3Cl)cc(-n3cncn3)cn2c1C

bioavailability (in vivo [2]): 12%
Vd (in vivo [3]): 3.5 L/kg
Vd (in vivo [4]): 6.6 L/kg
bioavailability (in vivo [5]): 21%
half-life (in vivo [6]): 2.3 h
CHI [1]: 3.07
clearance [7]: 3 L/h/kg
clearance (in vivo [8]): 4.98 L/h/kg
Compound: Cc1cccc(C)c1CNc1cc(-n2cncn2)cn2c(C)c(C)nc12
